How the values were obtained:
[1] = system: TNF-α; experiment: Whole bovine blood assay, LPS-induced TNF-α; assay type: cell-based; settings: fresh whole bovine blood, LPS stimulant
Procedure, shortened: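 Fresh heparinized bovine whole blood was preincubated with compound 4 h at 37 °C, then stimulated with LPS (final 1 μg/mL) for 18 h at 37 °C. Plasma TNF-α was quantified by MSD U-Plex chemiluminescent immunoassay, normalized to total protein (BCA), and IC50 taken for LPS-induced TNF-α inhibition.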

[2] = system: IL-1β; experiment: Whole bovine blood assay, LPS-induced IL-1β (inhibition / overstimulation); assay type: cell-based; settings: drug concentration giving overstimulation (OS) of LPS-induced IL-1β
Experimental: Whole Blood Assay-Fresh whole bovine blood samples were collected into heparinized vacutainer tubes. Assay plates were prepared with 25 μL of drug diluted in PBS at varying concentration in 96 round bottom wells, then 225 μL of blood was added and plates incubated at 37° C. for 4 hours. Cells were stimulated with LPS (or PBS for controls) by adding 25 μL to the plates at a final concentration of 1 μg/mL and incubated at 37° C. for 18 hours. To collect plasma, plates were centrifuged at 2,000×g for 10 minutes and 100 μL of supernatant was transferred to a 96 well polypropylene plate that was sealed and stored at −80° C. Samples were assayed for cytokines using the Meso Scale Discovery (MSD) platform (described below). This same MSD platform was used to assess cytokines in the plasma collected directly from drug treated animals.
Cytokine Detection—An MSD U-Plex cytokine assay was developed following the MSD U-Plex protocol guide and included biotinylated capture antibodies against: bovine Interleukin (IL)-1β (Biorad), bovine IL-6 (R&D Systems) and bovine tumor necrosis factor (TNF)-α (R&D Systems). The anti-IL-1β antibody was biotinylated using EZ-Link Sulfo-NHS-Biotin (Thermo Scientific) at a challenge ratio of 1:20 according to manufacturer instructions. Assay calibrators (Kingfisher) were diluted to a concentration of […] in control lithium heparin plasma, followed by 4-fold serial dilutions into plasma. The detection antibodies were sulfo-tagged following the MSD quick guide conjugation protocol using a challenge ratio of 1:20. Antibodies were used at the following concentrations: anti-IL-1β at 1 μg/mL, anti-IL-6 at 1 μg/mL and anti-TNF-α at 0.5 μg/mL. Cytokines were quantified according to manufacturer's instructions using a chemiluminescent readout. In brief, 0.5 mL of all biotinylated antibodies were diluted to 10 μg/mL with Diluent 100 and paired to their respective linkers by adding 750 μL of supplied Linker solution and incubated for 30 minutes followed by addition of Stop solution for another 30 minutes. The linked antibodies were then diluted 10-fold into Stop solution. Plates were coated by adding 50 μL of antibody solutions per well and incubated covered and shaking for 1 hour at room temperature. Plates were washed three times with PBS/Tween20 prior to samples or standards being added at 30 μL per well and incubated as above. Plates were washed three times before detection antibodies were added along with 2% goat and rabbit serum to block and incubated same as above. Plates were washed a further three times before addition of 150 μL 2X Read buffer and read immediately on the SI6000 instrument (MSD). For soluble protein levels, a BCA protein kit (Thermofisher) was used. The cytokine concentrations (pg/mL) were normalized to the total protein levels for each sample. [Bassel et. al., BMC Veterinary Research (2020) 16:168]
Therefore, a fresh whole bovine blood assay was developed with LPS as a stimulant (TLR-4 agonist) and with IL-1β and TNF-α as the read-out. Compounds of the invention were evaluated against a positive control for their ability to inhibit LPS-induced IL-1β and TNF-α as an overall evaluation of relative potency and modulation of target pathways.
For M9, the top dose of 500 μM was not high enough to determine an overstimulation of IL-1 B which was recorded as not applicable (n/a). The enhanced response indicates increased concentration of IL-1β cytokine at the drug concentration indicated. This is generally observed when compounds are out of range (high concentration) and stimulate a cellular toxicity signal. Further data supporting this hypothesis includes murine studies using a P. multocida infection in mice.
TNFα is a cell signaling protein, cytokine, that plays a key role in both acute and chronic inflammation. […]

Row | Structure (SMILES) | IC50 ([1]; top drug concentration 250 μM) [µM] | minimal effective concentration ([2]; top concentration 250 μM) [µM] | IC50 ([1]; dose of 500 μM (footnote ^)) [µM] | minimal effective concentration ([2]; dose of 500 μM (footnote ^)) [µM]
1 | CC[C@H]1OC(=O)[C@H](C)[C@@H](O)[C@H](C)[C@@H](O[C@@H]2O[C@H](C)C[C@H](N(C)S(=O)(=O)c3ccccc3)[C@H]2Oc2ccc(OC)cc2)[C@](C)(O)C[C@@H](C)CN(C)[C@H](C)[C@@H](O)[C@]1(C)O [Example A-1] | 22 | 16 |  | 
2 | CC[C@H]1OC(=O)[C@H](C)[C@@H](O)[C@H](C)[C@@H](O[C@@H]2O[C@H](C)C[C@H](N(C)S(=O)(=O)c3ccccc3)[C@H]2Oc2ccc(F)c(C(F)(F)F)c2)[C@](C)(O)C[C@@H](C)CN(C)[C@H](C)[C@@H](O)[C@]1(C)O [Example A-2] | 28 | 40 |  | 
3 | CC[C@H]1OC(=O)[C@H](C)[C@@H](O)[C@H](C)[C@@H](O[C@H]2O[C@@H](C)C[C@@H](N(C)S(=O)(=O)Nc3ccccc3)[C@@H]2Oc2ccccc2)[C@](C)(O)C[C@@H](C)CN[C@H](C)[C@@H](O)[C@]1(C)O [Example A-4] | 10 | 4 |  | 
4 | CC[C@H]1OC(=O)[C@H](C)[C@@H](O)[C@H](C)[C@@H](O[C@@H]2O[C@H](C)C[C@H](N(C)S(=O)(=O)Nc3ccccc3)[C@H]2Oc2ccc(OC)cc2)[C@](C)(O)C[C@@H](C)CN[C@H](C)[C@@H](O)[C@]1(C)O [Example A-36] | 10 | 4 |  | 
5 | CCCNC[C@]1(O)[C@H](C)O[C@@H](O[C@H]2[C@H](C)[C@@H](O[C@@H]3O[C@H](C)C[C@H](N(C)S(=O)(=O)c4cn(C)c(C)n4)[C@H]3O)[C@](C)(O)C[C@@H](C)CN[C@H](C)[C@@H](O)[C@](C)(O)[C@@H](CC)OC(=O)[C@@H]2C)C[C@@]1(C)OC [Example B-5] | > 250 | >250 |  | 
6 | CCCNC[C@]1(O)[C@H](C)O[C@@H](O[C@H]2[C@H](C)[C@@H](O[C@@H]3O[C@H](C)C[C@H](N(C)S(=O)(=O)c4ccc(F)nc4)[C@H]3O)[C@](C)(O)C[C@@H](C)CN[C@H](C)[C@@H](O)[C@](C)(O)[C@@H](CC)OC(=O)[C@@H]2C)C[C@@]1(C)OC [Example B-6] | 24 | 16 |  | 
7 | CCCNC[C@]1(O)[C@H](C)O[C@@H](O[C@H]2[C@H](C)[C@@H](O[C@@H]3O[C@H](C)C[C@H](N(C)S(=O)(=O)c4ccccc4)[C@H]3O)[C@](C)(O)C[C@@H](C)CN[C@H](C)[C@@H](O)[C@](C)(O)[C@@H](CC)OC(=O)[C@@H]2C)C[C@@]1(C)OC [Example B-7] | 25 | 40 |  | 
8 | CCCNC[C@]1(O)[C@H](C)O[C@@H](O[C@H]2[C@H](C)[C@@H](O[C@@H]3O[C@H](C)C[C@H](N(C)S(=O)(=O)c4cnc5ccsc5c4)[C@H]3O)[C@](C)(O)C[C@@H](C)CN[C@H](C)[C@@H](O)[C@](C)(O)[C@@H](CC)OC(=O)[C@@H]2C)C[C@@]1(C)OC [Example B-9] | 55 | 40 |  | 
9 | CCCNC[C@]1(O)[C@H](C)O[C@@H](O[C@H]2[C@H](C)[C@@H](O[C@@H]3O[C@H](C)C[C@H](N(C)S(=O)(=O)CC4CC4)[C@H]3O)[C@](C)(O)C[C@@H](C)CN[C@H](C)[C@@H](O)[C@](C)(O)[C@@H](CC)OC(=O)[C@@H]2C)C[C@@]1(C)OC [Example B-10] | 33 | 15 |  | 
10 | CCCNC[C@]1(O)[C@H](C)O[C@@H](O[C@H]2[C@H](C)[C@@H](O[C@@H]3O[C@H](C)C[C@H](N(C)S(=O)(=O)c4ccc(C#N)cc4)[C@H]3O)[C@](C)(O)C[C@@H](C)CN[C@H](C)[C@@H](O)[C@](C)(O)[C@@H](CC)OC(=O)[C@@H]2C)C[C@@]1(C)OC [Example B-13] | > 250 | 100 |  | 
11 | CCCNC[C@]1(O)[C@H](C)O[C@@H](O[C@H]2[C@H](C)[C@@H](O[C@@H]3O[C@H](C)C[C@H](N(C)S(=O)(=O)c4cn(C)cn4)[C@H]3O)[C@](C)(O)C[C@@H](C)CN[C@H](C)[C@@H](O)[C@](C)(O)[C@@H](CC)OC(=O)[C@@H]2C)C[C@@]1(C)OC [Example B-16] | > 250 | >250 |  | 
12 | CCCNC[C@]1(O)[C@H](C)O[C@@H](O[C@H]2[C@H](C)[C@@H](O[C@@H]3O[C@H](C)C[C@H](N(C)S(=O)(=O)c4ccc(OC)cc4)[C@H]3O)[C@](C)(O)C[C@@H](C)CN[C@H](C)[C@@H](O)[C@](C)(O)[C@@H](CC)OC(=O)[C@@H]2C)C[C@@]1(C)OC [Example B-18] |  |  | 15 | 32
13 | CCCNC[C@]1(O)[C@H](C)O[C@@H](O[C@H]2[C@H](C)[C@@H](O[C@@H]3O[C@H](C)C[C@H](N(C)S(=O)(=O)c4ccc(-n5cccn5)cc4)[C@H]3O)[C@](C)(O)C[C@@H](C)CN[C@H](C)[C@@H](O)[C@](C)(O)[C@@H](CC)OC(=O)[C@@H]2C)C[C@@]1(C)OC [Example B-19] | 30 | 16 |  | 
14 | CC[C@H]1OC(=O)[C@H](C)[C@@H](O[C@H]2C[C@@](C)(OC)[C@](O)(CNCCOC)[C@H](C)O2)[C@H](C)[C@@H](O[C@@H]2O[C@H](C)C[C@H](N(C)S(=O)(=O)c3ccc(Cl)cc3)[C@H]2O)[C@](C)(O)C[C@@H](C)CN[C@H](C)[C@@H](O)[C@]1(C)O [Example B-36] | 29 | 16 |  | 
15 | CCCNC[C@]1(O)[C@H](C)O[C@@H](O[C@H]2[C@H](C)[C@@H](O[C@@H]3O[C@H](C)C[C@H](N(C)S(C)(=O)=O)[C@H]3O)[C@](C)(O)C[C@@H](C)CN[C@H](C)[C@@H](O)[C@](C)(O)[C@@H](CC)OC(=O)[C@@H]2C)C[C@@]1(C)OC [Example B-59] | 150 | 57 |  | 
16 | CC[C@H]1OC(=O)[C@H](C)[C@@H](O[C@H]2C[C@@](C)(OC)[C@](O)(CNCCCN(C)C)[C@H](C)O2)[C@H](C)[C@@H](O[C@@H]2O[C@H](C)C[C@H](N(C)S(=O)(=O)Nc3ccc(C(F)(F)F)cc3)[C@H]2O)[C@](C)(O)C[C@@H](C)CN[C@H](C)[C@@H](O)[C@]1(C)O [Example B-74] | 33 | 16 |  | 
17 | CC[C@H]1OC(=O)[C@H](C)[C@@H](O[C@H]2C[C@@](C)(OC)[C@](O)(CNCCCN3CCCCC3)[C@H](C)O2)[C@H](C)[C@@H](O[C@@H]2O[C@H](C)C[C@H](N(C)S(=O)(=O)Nc3ccc(C(F)(F)F)cc3)[C@H]2O)[C@](C)(O)C[C@@H](C)CN[C@H](C)[C@@H](O)[C@]1(C)O [Example B-75] | 31 | >250 |  | 
18 | CC[C@H]1OC(=O)[C@H](C)[C@@H](O[C@H]2C[C@@](C)(OC)[C@](O)(CNCCNC(C)=O)[C@H](C)O2)[C@H](C)[C@@H](O[C@@H]2O[C@H](C)C[C@H](N(C)S(=O)(=O)Nc3ccc(C(F)(F)F)cc3)[C@H]2O)[C@](C)(O)C[C@@H](C)CN[C@H](C)[C@@H](O)[C@]1(C)O [Example B-81] | 22 | 15 |  | 
19 | CC[C@H]1OC(=O)[C@H](C)[C@@H](O[C@H]2C[C@@](C)(OC)[C@](O)(CNCCCN3CCCC3=O)[C@H](C)O2)[C@H](C)[C@@H](O[C@@H]2O[C@H](C)C[C@H](N(C)S(=O)(=O)Nc3ccc(C(F)(F)F)cc3)[C@H]2O)[C@](C)(O)C[C@@H](C)CN[C@H](C)[C@@H](O)[C@]1(C)O [Example B-87] | 17 | 9 |  | 
